No end group written: not given here.
The substances below were run on peripheral blood / PBMCs / peptide-induced CTL lines of HLA-A*24 donors (assay: Staining of peripheral blood, PBMCs or peptide-induced CTL lines with MHC-tetramer reagents). Settings: PBMCs from donor ID*24-14 after 24 days of stimulation with LYA.
Type: cell-based, human
Method: MBL Co. where the present inventors are affiliated with has acquired exclusive patent licensing rights in Japan for MHC-tetramer reagents (U.S. Pat. No. 5,635,363; French Application No. FR9911133; and U.S. Pat. Nos. 5,723,584, 5,874,239, 5,932,433, and 6,265,552) from Beckman Coulter Co. Based on the patents, PE-labeled MHC-tetramer reagents were prepared using adenovirus-specific CTL epitope peptides and HLA-A*2402 molecules.
Adenovirus-specific CTLs quantification was carried out using MHC-tetramer reagents that was prepared using CTL epitope peptides of the present invention, with peripheral blood, PBMCs isolated from peripheral blood, CTL lines induced using CTL epitope peptides as samples. Examples of quantification using PE-labeled MHC-tetramer reagents are described below. Labelling dyes may be used in an appropriate combination depending on the type of flow cytometer to be used, and is not limited to the examples described below.
Ten μl of a PE-labeled MHC-tetramer reagent, 20 μl of an FITC-labeled antibody for T cell (for example, CD8, CD4, or CD3), and such were added to 200 μl of collected peripheral blood. A CD45 antibody labeled with PC5 or such may also be added to eliminate nonspecific fluorescence due to contaminated erythrocytes. After gentle mixing, the mixture was allowed to stand at room temperature for 30 minutes. OptiLyse B was added, and erythrolysis and fixation was carried out according to the manufacturer's protocol. Two ml of PBS was added, stirred, and the cells were centrifuged at 400×g for 5 minutes. After the supernatant was removed by aspiration, the cells were resuspended in 500 μl of PBS and analyzed using a flow cytometer within 24 hours.
Ten μl of a PE-labeled MHC-tetramer reagent, 20 μl of an FITC-labeled T cell surface antibody (for example, CD8, CD4, or CD3), and such were added to an appropriate amount of PBMCs (10^5 to 10^6 cells) or a CTL line induced by use of CTL epitope peptides. A CD45 antibody labeled with PC5 or such may also be added to eliminate nonspecific fluorescence due to contaminated erythrocytes. After gentle mixing, the cells were allowed to stand at room temperature for 30 minutes. Three ml of PBS was added, stirred, and the cells were centrifuged at 400×g for 5 minutes. After the supernatant was removed by aspiration, the cells were resuspended in 500 μl of PBS. When a CTL line is used, 7-AAD Viability Dye (Non-viable cell detection reagent; MBL Co.) may be added to eliminate nonspecific fluorescence caused by non-viable cells. The cells were analyzed using a flow cytometer within 24 hours.
The results of staining obtained using the five types of MHC-tetramer reagents used to prepare the peptide-induced CTL lines are shown in FIG. 5.

Row | Substance | CD3-positive, LYA-Tet-positive cells [%] | CD4-positive, LYA-Tet-positive cells [%] | CD8-positive, LYA-Tet-positive cells [%]
1 | HLA-A*2402 LYANSAHAL (Seq Id No: 2) Tetramer Reagent [LYA-Tet] | 1.13 | 0.09 | 0.18

Same assay, conditions: donor ID*24-2; 13 days stimulation with the peptide, then HIV peptide added; % of whole viable cells

Row | Substance | specific CTLs (CD8-positive MHC-tetramer reagent-positive cells, UR) [%]
2 | QYDPVAALF [CMV pp65, reference compound] | 28.8

Same assay, conditions: donor ID*24-8, 10 days culture with peptide

Row | Substance | staining pattern at day 10 compared to Negative Tetramer reagent
3 | HLA-A*2402 TYFNLGNKF (Seq Id No: 4) Tetramer Reagent [TYF-Tet] | clear CD8-positive, MHC-tetramer-positive pattern
4 | HLA-A*2402 VYSGSIPYL (SEQ ID NO: 3) Tetramer Reagent [VYS-Tet] | clear CD8-positive, MHC-tetramer-positive pattern

Same assay, conditions: donor ID*24-12, peptide-induced cells

Row | Substance | profile of tetramer-positive cells
5 | HLA-A*2402 DYLSAANML (Seq Id No: 1) Tetramer Reagent [DYL-Tet] | no relevant profile
6 | HLA-A*2402 LYSNVALYL (Seq Id No: 5) Tetramer Reagent [LYS-Tet] | no relevant profile

Same assay, conditions: peptide-induced CTL lines, FIG. 5; VYS-Tet: donor ID*24-1, *24-3, *24-11, *24-12, *24-14

Row | Substance | population of CD8-negative, tetramer reagent-positive cells in the UL
7 | HLA-A*2402 LYANSAHAL (Seq Id No: 2) Tetramer Reagent [LYA-Tet] | detected
8 | HLA-A*2402 VYSGSIPYL (SEQ ID NO: 3) Tetramer Reagent [VYS-Tet] | detected

Same assay, conditions: peptide-induced CTL lines, donor ID*24-2 and *24-8, FIG. 5

Row | Substance | population of CD8-positive, tetramer-positive cells in the UR
9 | HLA-A*2402 TYFNLGNKF (Seq Id No: 4) Tetramer Reagent [TYF-Tet] | clearly detected
10 | HLA-A*2402 VYSGSIPYL (SEQ ID NO: 3) Tetramer Reagent [VYS-Tet] | clearly detected

These substances were tested on PBMCs of healthy adults reactive to the anti-HLA-A*24 antibody (assay: Induction of specific CTLs from PBMCs, method for quantifying cells producing intracellular IFNγ). Settings: donor *24-8; HIV peptides added for restimulation as negative control.
Type: cell-based, human
Parameters: key to specific CTL induction, cytokine quantification method: ∘: “open circle” indicates that the use of a candidate peptide enabled specific CTLs to be induced; x: “cross” indicates that specific CTLs was unable to be induced
Method: This induction method induces CTLs by adding peptides to culture media of PBMCs. Peptides are presented on antigen-presenting cells present among PBMCs, such as dendritic cells, B cells, macrophages, and certain types of T cells, whereby CTL precursor cells in PBMCs are stimulated to proliferate.
Peripheral blood collected from healthy adults that were reactive to the anti-HLA-A*24 antibody was centrifuged at 3,000 rpm for 5 to 10 minutes. The resulting supernatant plasma was collected. The non-plasma portion was processed according to a conventional method to isolate PBMCs. The characteristic of the present method is the addition of several % of plasma to an induction medium. In the present invention, a favorable result was obtained by adding 5% plasma. The medium is prepared by adding appropriate additives and antibiotics to a medium commonly used for cell culture. The CTL induction medium used in the present invention was RPMI1640 Hepes modify (Sigam) supplemented with 2-mercapotethanol, L-glutamine, and the antibiotics streptomycin and penicillin. In addition to these, insulin, transferrin, selenious acid, pyruvic acid, human serum albumin, solution of non-essential amino acids, and the like may be added. 1 to 3×10^6 PBMCs were suspended in 1 to 2.5 ml of the culture medium. A candidate peptide was added to the cells at a concentration of 1 to 20 μg/ml. The concentration of peptide can be altered depending on the solubility of the peptide. The peptide was added at 10 μg/ml. After two days, IL-2 was added at a final concentration of 20 to 100 U/ml. Round-bottomed culture dishes that allow the exchange of carbon dioxide gas are preferably used to co-culture PBMCs with peptides. In the context of the present invention, 14-ml round-bottomed polypropylene tubes (Becton Dikinson) or 96-well U-bottomed cell culture microtest plates (Becton Dikinson) were used. The adenovirus-specific CTLs were confirmed after about two and four weeks of culture. The cells were stimulated again with the peptide at 10 μg/ml after about two weeks of culture. When the induction of adenovirus-specific CTLs was confirmed, the cells were further stimulated with peptide-pulsed antigen-presenting cells to establish CTL lines.
Approximately 1/10 to all of the cells induced by the above-described method were transferred into 96-well U-bottomed cell culture microtest plates, and the peptide used for the induction was added thereto at a final concentration of 0.01 to 0.05 μg/ml. Then, an intracellular protein transport inhibitor (for example, brefeldin A, monensin, or such) was added, and the cells were cultured in a 5% CO2 incubator at 37° C. for 5 to 16 hours. After culture, the cells were washed, and phycoerythrin (PE)-labeled MHC-tetramer reagent and phycoerythrin-Cy5(PC5)-labeled CD8 antibody (Beckman Coulter) were added thereto. The resulting mixture was allowed to stand at room temperature for 15 to 30 minutes. After washing, the cells were fixed with 4% formaldehyde at 4° C. for 15 minutes and washed with an excess amount of washing solution. After membrane permeabilization treatment with 0.1% saponin, an FITC-labeled anti-IFNγ antibody (Beckman Coulter) was added, and reacted at room temperature for 15 to 30 minutes. After washing, the proportion of IFNγ-positive cells in T cells or MHC-tetramer reagent-positive cells was determined using a flow cytometer.
PBMCs derived from ten people with HLA-A*24 molecule were tested using 10 types of peptides. […] Thus, these six types of candidate epitope peptides serve as adenovirus-specific CTL epitope peptides. Since the adenovirus-specific CTL epitope peptides have the HLA-A*24-binding motif, they are likely to be HLA-A*2402-restricted epitope peptides, which are carried by 60% or more of the Japanese people. In the context of the results described above, MHC-tetramer reagents were synthesized using five types of epitope peptides, and their utility was tested.

Row | Substance | CD8-positive, IFNγ-positive cells in UR [%]
11 | RYLRDQQLL [HIV peptide, reference compound] | 0.62

Same assay, conditions: donor *24-12; HIV peptides added for restimulation as negative control

Row | Substance | CD8-positive, IFNγ-positive cells in UR [%]
12 | RYLRDQQLL [HIV peptide, reference compound] | 0.18

Same assay, conditions: donor *24-12; restimulation with the same peptide as used in the induction; % in PBMCs

Row | Substance | CD8-positive, IFNγ-positive (producing) cells in UR [%]
13 | DYLSAANML | 0.49

Same assay, conditions: donor ID *24-1

Row | Substance | specific CTL induction, cytokine quantification method
14 | DYLSAANML | ∘
15 | GYKDRMYSF | x
16 | KYTPSNVTL | x
17 | NYIGFRDNF | x
18 | NYNIGYQGF | x
19 | SYQLLLDSL | x

Same assay, conditions: donor ID *24-2

Row | Substance | specific CTL induction, cytokine quantification method
20 | DYLSAANML | ∘
21 | GYKDRMYSF | x
22 | KYTPSNVTL | x
23 | NYIGFRDNF | x
24 | NYNIGYQGF | x
25 | SYQLLLDSL | x

Same assay, conditions: donor ID *24-3

Row | Substance | specific CTL induction, cytokine quantification method
26 | DYLSAANML | x
27 | GYKDRMYSF | x
28 | KYTPSNVTL | x
29 | NYIGFRDNF | x
30 | NYNIGYQGF | x
31 | SYQLLLDSL | x

Same assay, conditions: donor ID *24-5

Row | Substance | specific CTL induction, cytokine quantification method
32 | DYLSAANML | x
33 | GYKDRMYSF | x
34 | KYTPSNVTL | x
35 | NYIGFRDNF | x
36 | NYNIGYQGF | x
37 | SYQLLLDSL | x

Same assay, conditions: donor ID *24-8

Row | Substance | specific CTL induction, cytokine quantification method
38 | DYLSAANML | x
39 | GYKDRMYSF | ∘
40 | KYTPSNVTL | x
41 | NYIGFRDNF | x
42 | NYNIGYQGF | x
43 | SYQLLLDSL | x

Same assay, conditions: donor ID *24-10

Row | Substance | specific CTL induction, cytokine quantification method
44 | DYLSAANML | ∘
45 | GYKDRMYSF | x
46 | KYTPSNVTL | x
47 | NYIGFRDNF | x
48 | NYNIGYQGF | x
49 | SYQLLLDSL | x

Same assay, conditions: donor ID *24-11

Row | Substance | specific CTL induction, cytokine quantification method
50 | DYLSAANML | x
51 | GYKDRMYSF | x
52 | KYTPSNVTL | x
53 | NYIGFRDNF | x
54 | NYNIGYQGF | x
55 | SYQLLLDSL | x

Same assay, conditions: donor ID *24-12

Row | Substance | specific CTL induction, cytokine quantification method
56 | DYLSAANML | ∘
57 | GYKDRMYSF | x
58 | KYTPSNVTL | x
59 | NYIGFRDNF | x
60 | NYNIGYQGF | x
61 | SYQLLLDSL | x

Same assay, conditions: donor ID *24-13

Row | Substance | specific CTL induction, cytokine quantification method
62 | DYLSAANML | x
63 | GYKDRMYSF | x
64 | KYTPSNVTL | x
65 | NYIGFRDNF | x
66 | NYNIGYQGF | x
67 | SYQLLLDSL | x

Same assay, conditions: donor ID *24-14

Row | Substance | specific CTL induction, cytokine quantification method
68 | DYLSAANML | x
69 | GYKDRMYSF | x
70 | KYTPSNVTL | x
71 | NYIGFRDNF | x
72 | NYNIGYQGF | x
73 | SYQLLLDSL | x

Same assay, conditions: donor ID*24-8, FIG. 3a-d

Row | Substance | specific CTL induction confirmed by CD8-positive, IFNγ-positive cells versus HIV peptide
74 | GYKDRMYSF | induced specific CTLs

Same assay, conditions: donor ID*24-12, FIG. 3e-h

Row | Substance | specific CTL induction confirmed by CD8-positive, IFNγ-positive cells versus HIV peptide
75 | DYLSAANML | specific CTL induction was confirmed

Same assay, conditions: summary of Table 2

Row | Substance | peptide-specific cytokine production in PBMCs derived from ten people with HLA-A*24 molecule
76 | DYLSAANML | induce cytokine production in a peptide-specific manner
77 | GYKDRMYSF | induce cytokine production in a peptide-specific manner

Same assay, conditions: ten persons tested

Row | Substance | number of persons with peptide-specific IFNγ production / CTL induction
78 | DYLSAANML | four of the ten persons

— patent US20090142363A1, “CYTOTOXIC T-CELL EPITOPE PEPTIDE AND USE THEREOF” (priority 2005, published 2009)
